Data published in patent US20230114728A1 (Venatorx Pharmaceuticals, Inc., priority 2019, published 2023).
≈ marks a conversion by molar mass, not a printed value.

How the values were obtained:
[1] = test system: N. gonorrhoeae FA1090; experiment: Liquid broth MIC in Fastidious broth; type: cell-based; conditions: Neisseria gonorrhoeae; N. gonorrhoeae strain FA1090; Fastidious broth; read-out: Minimum Inhibitory Concentration, N. gonorrhoeae FA1090
Method in brief: (§1)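 Colonies were swabbed from chocolate agar after 24 h growth and standardised by optical density at 600 nm. Compounds were serially diluted twofold in Fastidious broth, and bacteria added to give 5×10^5 CFU/mL. After about 24 h at 36 °C in 5% CO2, the lowest concentration allowing under 10% growth was taken as MIC.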

[2] = test system: N. gonorrhoeae ATCC 49226; experiment: Liquid broth MIC in Fastidious broth; type: cell-based; conditions: Neisseria gonorrhoeae, ATCC49226; N. gonorrhoeae strain ATCC 49226; Fastidious broth; read-out: Minimum Inhibitory Concentration, N. gonorrhoeae ATCC 49226
Method in brief: as §1

[3] = test system: N. gonorrhoeae WHO K; experiment: Liquid broth MIC in Fastidious broth; type: cell-based; conditions: Neisseria gonorrhoeae, read-out: Minimum Inhibitory Concentration, N. gonorrhoeae WHO K
Method in brief: as §1

[4] = test system: N. gonorrhoeae H041; experiment: Liquid broth MIC in Fastidious broth; type: cell-based; conditions: Neisseria gonorrhoeae, H041, read-out: Minimum Inhibitory Concentration, N. gonorrhoeae H041
Method in brief: as §1

[5] = test system: N. gonorrhoeae WHO G; experiment: Liquid broth MIC in Fastidious broth; type: cell-based; conditions: Neisseria gonorrhoeae; N. gonorrhoeae strain WHO G; Fastidious broth; read-out: Minimum Inhibitory Concentration, N. gonorrhoeae WHO G
Method in brief: as §1

[6] = test system: N. gonorrhoeae WHO L; experiment: Liquid broth MIC in Fastidious broth; type: cell-based; conditions: Neisseria gonorrhoeae; N. gonorrhoeae strain WHO L; Fastidious broth; read-out: Minimum Inhibitory Concentration, N. gonorrhoeae WHO L
Method in brief: as §1

[7] = target: T1, P. aeruginosa PBP3 (Pseudomonas aeruginosa, UniProt G3XD46); experiment: Bocillin-FL fluorescence polarization competition binding assay, P. aeruginosa PBP3; conditions: fluorescence polarization competition binding assay using Bocillin-FL
T1 construct: made in house
T1 sequence (G3XD46 whole entry): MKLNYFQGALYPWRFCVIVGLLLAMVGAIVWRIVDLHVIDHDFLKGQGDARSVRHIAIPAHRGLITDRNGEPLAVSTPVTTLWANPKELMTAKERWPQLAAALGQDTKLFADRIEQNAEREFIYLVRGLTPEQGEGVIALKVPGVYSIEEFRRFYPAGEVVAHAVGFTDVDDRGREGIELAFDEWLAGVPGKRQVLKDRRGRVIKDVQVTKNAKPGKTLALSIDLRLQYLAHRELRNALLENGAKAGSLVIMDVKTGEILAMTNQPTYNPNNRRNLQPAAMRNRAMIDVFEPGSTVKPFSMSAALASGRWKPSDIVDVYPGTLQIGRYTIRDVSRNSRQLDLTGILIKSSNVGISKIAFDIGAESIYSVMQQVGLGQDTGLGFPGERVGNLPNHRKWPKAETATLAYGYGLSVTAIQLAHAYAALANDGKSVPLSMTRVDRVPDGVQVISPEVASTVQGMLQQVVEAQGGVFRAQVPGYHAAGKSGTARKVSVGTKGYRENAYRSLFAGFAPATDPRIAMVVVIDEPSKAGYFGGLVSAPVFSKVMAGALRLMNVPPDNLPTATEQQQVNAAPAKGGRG
Method in brief: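 Binding of boronic acid inhibitors to purified Pseudomonas aeruginosa (PA01) PBP3 was measured by fluorescence polarization competition with Bocillin-FL, a fluorescent penicillin V. Reactions of 80 μl contained 0.75 μM PBP3 and 0.1 μM Bocillin-FL in 50 mM Hepes (pH 8.0), 300 mM NaCl and 5% (v/v) glycerol, in black 384-well plates. FP (Excitation 490 nm, Emission 520 nm) was read for up to 60 minutes. EC50 is the concentration that halves PBP-bound Bocillin-FL.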

[8] = target: T2, E. coli K12 PBP3 (Escherichia coli, UniProt P0AD68); experiment: biochemical; type: binding
T2 construct: made in house
T2 sequence (P0AD68 1-577): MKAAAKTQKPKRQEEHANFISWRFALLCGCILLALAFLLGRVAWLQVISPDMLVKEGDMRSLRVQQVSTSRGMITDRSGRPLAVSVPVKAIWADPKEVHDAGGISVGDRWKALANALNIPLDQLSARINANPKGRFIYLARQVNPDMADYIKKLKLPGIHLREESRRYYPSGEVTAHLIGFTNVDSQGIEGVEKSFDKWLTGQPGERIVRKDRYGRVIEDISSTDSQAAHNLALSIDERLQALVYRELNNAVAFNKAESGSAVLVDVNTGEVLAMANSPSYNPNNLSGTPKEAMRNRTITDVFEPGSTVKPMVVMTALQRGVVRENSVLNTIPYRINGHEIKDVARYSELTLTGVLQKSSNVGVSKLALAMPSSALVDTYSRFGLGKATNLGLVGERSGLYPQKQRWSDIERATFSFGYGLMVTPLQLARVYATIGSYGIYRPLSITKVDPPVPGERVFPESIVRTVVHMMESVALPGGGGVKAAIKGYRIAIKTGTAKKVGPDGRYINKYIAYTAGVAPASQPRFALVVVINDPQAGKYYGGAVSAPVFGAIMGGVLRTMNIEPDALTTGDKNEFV
Method in brief: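 Fluorescence polarization (ex 490/em 520 nm) competition of inhibitors against Bocillin-FL at 0.1 μM, read up to 60 min. Final PBP levels: E. coli PBP3 1.5 μM; A. baumannii PBP2 2.5 μM, PBP3 0.2 μM in Tris pH 8.0/NaCl/glycerol/Tween 20; N. gonorrhoeae PBP2 […] in Hepes pH 8.0/NaCl/glycerol. EC50 = concentration halving PBP-bound Bocillin-FL.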

Row | Compound | MIC [1] [mg/L] | MIC [2] [mg/L] | MIC [3] [mg/L] | MIC [4] [mg/L] | MIC [5] [mg/L] | MIC [6] [mg/L] | P. aeruginosa PBP3 Potency [7] | EC50 [8] [µM]
1 | CCN1CCN(C(=O)N[C@H](C(=O)N[C@H]2Cc3cccc(C(=O)O)c3OB2O)c2nc(Cl)c(C(=O)O)cc2F)C(=O)C1=O [Example 19, 6-((S)-2-(((R)-8-carboxy-2-hydroxy-3,4-dihydro-2H-benzo[e][1,2]oxaborinin-3-yl)amino)-1-(4-ethyl-2,3-dioxopiperazine-1-carboxamido)-2-oxoethyl)-2-chloro-5-fluoronicotinic acid] | 1 to 2 (≈ 1.65 to 3.3 µM) | 16 to 32 (≈ 26.4 to 52.8 µM) | > 64 | > 64 | 4 to 8 (≈ 6.6 to 13.2 µM) | > 64 | D (D represents a potency <10 μM) | < 30
2 | NCCN1CCN(C(=O)N[C@@H](C(=O)N[C@H]2Cc3cccc(C(=O)O)c3OB2O)c2ccc(O)cc2F)C(=O)C1=O (single isomer, unassigned) [Example 89] | 1 to 2 (≈ 1.79 to 3.59 µM) | 16 to 32 (≈ 28.7 to 57.4 µM) | > 64 | > 64 | 4 to 8 (≈ 7.18 to 14.4 µM) | > 64 | D (D represents a potency <10 μM) | 30 to 500
3 | CCN1CCN(C(=O)NC(C(=O)N[C@H]2Cc3ccc(OCCN)c(C(=O)O)c3OB2O)c2ccccc2)C(=O)C1=O (stereo partly drawn) [Example 60, (3R)-7-(2-aminoethoxy)-3-(2-(4-ethyl-2,3-dioxopiperazine-1-carboxamido)-2-phenylacetamido)-2-hydroxy-3,4-dihydro-2H-benzo[e][1,2]oxaborinine-8-carboxylic acid] | 16 to 32 (≈ 28.2 to 56.4 µM) | > 64 | > 64 | > 64 | > 64 | > 64 | C (C represents a potency between 10 and 30 μM) | 30 to 500
4 | NCCN1CCN(C(=O)N[C@H](C(=O)N[C@H]2Cc3cccc(C(=O)O)c3OB2O)c2ccc(C(=O)O)cc2)C(=O)C1=O (single isomer, unassigned) [Example 83] | 1 to 2 (≈ 1.76 to 3.53 µM) | 16 to 32 (≈ 28.2 to 56.4 µM) | > 64 | > 64 | 4 to 8 (≈ 7.05 to 14.1 µM) | > 64 | C (C represents a potency between 10 and 30 μM) | 30 to 500
5 | CCN1CCN(C(=O)NC(C(=O)N[C@H]2Cc3cccc(C(=O)O)c3OB2O)c2cccc(NS(C)(=O)=O)c2)C(=O)C1=O (stereo partly drawn) [Example 76, (3R)-3-(2-(4-ethyl-2,3-dioxopiperazine-1-carboxamido)-2-(3-(methylsulfonamido)phenyl)acetamido)-2-hydroxy-3,4-dihydro-2H-benzo[e][1,2]oxaborinine-8-carboxylic acid] | 1 to 2 (≈ 1.66 to 3.33 µM) | > 64 | > 64 | > 64 | 16 to 32 (≈ 26.6 to 53.2 µM) | > 64 | D (D represents a potency <10 μM) | < 30
6 | O=C(Nc1ccc(O)c(O)c1Cl)NC(C(=O)N[C@H]1Cc2ccc(F)c(C(=O)O)c2OB1O)c1ncc(O)cc1F (stereo partly drawn) [Example 9, (3R)-3-(2-(3-(2-chloro-3,4-dihydroxyphenyl)ureido)-2-(3-fluoro-5-hydroxypyridin-2-yl)acetamido)-7-fluoro-2-hydroxy-3,4-dihydro-2H-benzo[e][1,2]oxaborinine-8-carboxylic acid] | 16 to 32 (≈ 27.6 to 55.3 µM) | > 64 | > 64 | > 64 | > 64 | > 64 | D (D represents a potency <10 μM) | 30 to 500
7 | NCCN1CCN(C(=O)N[C@@H](C(=O)N[C@H]2Cc3cccc(C(=O)O)c3OB2O)c2ccc(C(=O)O)cc2)C(=O)C1=O (single isomer, unassigned) [Example 84] | 1 to 2 (≈ 1.76 to 3.53 µM) | 4 to 8 (≈ 7.05 to 14.1 µM) | 16 to 32 (≈ 28.2 to 56.4 µM) | > 64 | 1 to 2 (≈ 1.76 to 3.53 µM) | 16 to 32 (≈ 28.2 to 56.4 µM) | D (D represents a potency <10 μM) | < 30
8 | O=C(O)c1ccc(C(NC(=O)c2ccc(O)c(O)c2Cl)C(=O)N[C@H]2Cc3cccc(C(=O)O)c3OB2O)cc1F (stereo partly drawn) [Example 7, (3R)-3-(2-(4-carboxy-3-fluorophenyl)-2-(2-chloro-3,4-dihydroxybenzamido)acetamido)-2-hydroxy-3,4-dihydro-2H-benzo[e][1,2]oxaborinine-8-carboxylic acid] | 16 to 32 (≈ 27.9 to 55.9 µM) | > 64 | > 64 | > 64 | > 64 | > 64 | D (D represents a potency <10 μM) | 30 to 500
9 | CCN1CCN(C(=O)NC(C(=O)N[C@H]2Cc3cccc(C(=O)O)c3OB2O)c2cccc(N)c2)C(=O)C1=O (stereo partly drawn) [Example 72, (3R)-3-(2-(3-aminophenyl)-2-(4-ethyl-2,3-dioxopiperazine-1-carboxamido)acetamido)-2-hydroxy-3,4-dihydro-2H-benzo[e][1,2]oxaborinine-8-carboxylic acid] | 0.25 to 0.5 (≈ 0.478 to 0.955 µM) | 4 to 8 (≈ 7.64 to 15.3 µM) | > 64 | > 64 | 1 to 2 (≈ 1.91 to 3.82 µM) | > 64 | D (D represents a potency <10 μM) | < 30
10 | CCN1CCN(C(=O)NC(C(=O)N[C@H]2Cc3cccc(C(=O)O)c3OB2O)c2ccc(O)cc2O)C(=O)C1=O (stereo partly drawn) [Example 69, (3R)-3-(2-(2,4-dihydroxyphenyl)-2-(4-ethyl-2,3-dioxopiperazine-1-carboxamido)acetamido)-2-hydroxy-3,4-dihydro-2H-benzo[e][1,2]oxaborinine-8-carboxylic acid] | 0.25 to 0.5 (≈ 0.463 to 0.925 µM) | 4 to 8 (≈ 7.4 to 14.8 µM) | > 64 | > 64 | 4 to 8 (≈ 7.4 to 14.8 µM) | 16 to 32 (≈ 29.6 to 59.2 µM) | C (C represents a potency between 10 and 30 μM) | < 30
11 | CCN1CCN(C(=O)NC(C(=O)N[C@H]2Cc3ccc(F)c(C(=O)O)c3OB2O)c2ccc(C(=O)O)cc2)C(=O)C1=O (stereo partly drawn) [Example 15, (3R)-3-(2-(4-carboxyphenyl)-2-(4-ethyl-2,3-dioxopiperazine-1-carboxamido)acetamido)-7-fluoro-2-hydroxy-3,4-dihydro-2H-benzo[e][1,2]oxaborinine-8-carboxylic acid] | 0.25 to 0.5 (≈ 0.438 to 0.877 µM) | 4 to 8 (≈ 7.01 to 14 µM) | 4 to 8 (≈ 7.01 to 14 µM) | 4 to 8 (≈ 7.01 to 14 µM) | 4 to 8 (≈ 7.01 to 14 µM) | > 64 | D (D represents a potency <10 μM) | < 30
12 | O=C(O)c1c(F)ccc2c1OB(O)[C@@H](NC(=O)C(NC(=O)N1CCN(CCF)C(=O)C1=O)c1c(F)cc(O)c(O)c1F)C2 (stereo partly drawn) [Example 37, (3R)-3-(2-(2,6-difluoro-3,4-dihydroxyphenyl)-2-(4-(2-fluoroethyl)-2,3-dioxopiperazine-1-carboxamido)acetamido)-7-fluoro-2-hydroxy-3,4-dihydro-2H-benzo[e][1,2]oxaborinine-8-carboxylic acid] | 4 to 8 (≈ 6.53 to 13.1 µM) | 16 to 32 (≈ 26.1 to 52.3 µM) | 16 to 32 (≈ 26.1 to 52.3 µM) | 16 to 32 (≈ 26.1 to 52.3 µM) | 16 to 32 (≈ 26.1 to 52.3 µM) | > 64 | D (D represents a potency <10 μM) | < 30
